Source: PMC6968685 (Journal of Enzyme Inhibition and Medicinal Chemistry, 2020)
Read-outs that look alike come from different tables or passages of the source.

Tests used:
[1] = tested on: L. donovani (MHOM/IN/00/DEVI) promastigotes; assay: In vitro antileishmanial activity, MTT assay on promastigotes; format: cell-based; details: Leishmania donovani, 72 h incubation, ≥10 = no activity noted at the highest concentration tested
Protocol: L. donovani (MHOM/IN/00/DEVI) used in this study was provided by the CNR Leishmania (Montpellier, France). The effects of the tested compounds on the growth of L. donovani (MHOM/IN/00/DEVI) promastigotes were assessed by MTT assay. Briefly, promastigotes in log-phase in Schneider’s medium supplemented with 20% foetal calf serum (FCS), 2 mM L-glutamine and antibiotics (100 U/ml penicillin and 100 µg/ml streptomycin), were incubated at an average density of 10^6 parasites/ml in sterile 96-well plates with various concentrations of compounds dissolved in DMSO (final concentration less than 0.5% v/v), in duplicate. Appropriate controls treated with DMSO and amphotericin B (reference drug purchased from Sigma-Aldrich) were added to each set of experiments. After 72 h incubation period at 27 °C, parasite metabolic activity was determined. Each well was microscopically examined for precipitate formation. To each well was added 20 µl of 5 mg/ml MTT [3–(4,5-dimethylthiazol-2-yl)-2,5-diphenyltetrazolium bromide)] solution followed by 4 h incubation time. The enzyme reaction was stopped by addition of 100 µl of 50% isopropanol/10% sodium dodecyl sulfate. Plates were vigorously shaken (300 rpm) for 10 min, and the absorbance was measured at 570 nm in a BIO-TEK ELx808 Absorbance Microplate Reader. […] IC50 of the parasite’s growth (half maximal inhibitory concentration or IC50 values) were then calculated from the obtained experimental results using a previously described regression programme.

[2] = tested on: T. brucei brucei AnTat 1.9; assay: In vitro antitrypanosomal activity, Alamar Blue assay; format: cell-based; details: for Selectivity index HepG2/Tryp.: SI = CC50 HepG2 / IC50 Trypanosoma brucei brucei; for IC50: Trypanosoma brucei, slender bloodstream trypomastigotes, AnTat 1.9 strain, read-out: Trypanosoma brucei brucei IC50 values, Trypanos Antat 1.9
Protocol: The effects of the tested compounds on the growth of T. brucei brucei were assessed using an Alamar Blue® assay described by Räz et al.[49] T. brucei brucei AnTat 1.9 (IMTA, Antwerpen, Belgium) was cultured in MEM with Earle’s salts, supplemented according to the protocol of Baltz et al.[50] with the following modifications: 0.5 mM mercaptoethanol (Sigma Aldrich), 1.5 mM L-cysteine (Sigma Aldrich), 0.05 mM bathocuproine sulphate (Sigma Aldrich), and 20% heat-inactivated horse serum (Gibco, France) at 37 °C and 5% CO2. Samples were incubated at an average density of 2000 parasites/well in sterile 96-wells plates (Fisher, France) with various concentrations of compounds dissolved in 0.9% NaCl. All doses were tested in duplicate. Appropriate controls treated with solvents 0.9% NaCl or DMSO or with suramin, pentamidine, eflornithine, and fexinidazole (reference drugs purchased from Sigma Aldrich and Fluorochem, UK) were added to each set of experiments. After 69 h incubation period at 37 °C, 10 µl of the viability marker Alamar Blue (Fisher) was added to each well, and the plates were incubated for 5 h. The plates were read in a PerkinElmer ENSPIRE (Germany) microplate reader using an excitation wavelength of 530 nm and an emission wavelength of 590 nm. […] IC50 values were calculated using a nonlinear regression analysis of dose-response curves performed using GraphPad Prism software (La Jolla, CA). IC50 values were calculated from three independent experiments.

[3] = Cytotoxicity evaluation, MTT; format: cell-based, human; details: human
Protocol: These cells are a commonly used human hepatocarcinoma-derived cell line that has characteristics similar to those of primary hepatocytes. These cells express many hepatocyte-specific metabolic enzymes, thus enabling the cytotoxicity of tested product metabolites to be evaluated. […] Duplicate assays were performed for each sample. Each well was microscopically examined for precipitate formation before the medium was aspirated from the wells. After aspiration, 100 µl of MTT solution (0.5 mg/ml in medium without FCS) were then added to each well. […] The MTT solution was removed, and DMSO (100 µl) was added to dissolve the resulting blue formazan crystals. Plates were shaken vigorously (300 rpm) for 5 min. The absorbance was measured at 570 nm with 630 nm as reference wavelength in a BIO-TEK ELx808 Absorbance Microplate Reader. DMSO was used as blank and doxorubicin (Sigma Aldrich) as positive control. Cell viability was calculated as percentage of control (cells incubated without compound). The CC50 was determined from the dose-response curve using the TableCurve 2D version 5.0 software (Systat Software, San Jose, CA)

[4] = tested on: P. falciparum CQ-sensitive strain 3D7; assay: In vitro antiplasmodial activity, SYBR Green I fluorescence-based method, strain 3D7; format: cell-based; details: for IC50: Plasmodium falciparum, chloroquine-sensitive strain 3D7, 48 h incubation, read-out: P. falciparum strains IC50 values, 3D7; for Selectivity index HepG2/3D7: SI = CC50 HepG2 / IC50 P. falciparum 3D7
Protocol: The in vitro antiplasmodial activities were tested over concentrations ranging from […] against culture-adapted P. falciparum reference strains 3D7 and W2. […] The parasites were cultivated in RPMI medium (Sigma-Aldrich, Lyon, France) supplemented with 0.5% Albumax I (Life Technologies Corporation, Paisley, UK), hypoxanthine (Sigma-Aldrich), and gentamicin (Sigma-Aldrich) with human erythrocytes and were incubated at 37 °C in a candle jar, as described previously[43] .The P. falciparum drug susceptibility test was carried out in 96-well flat-bottom sterile plates in a final volume of 250 µl. After 48 h incubation period with the drugs, quantities of DNA in treated and control cultures of parasites in human erythrocytes were quantified using the SYBR Green I (Sigma-Aldrich) fluorescence-based method[44]^,[45]. Briefly, after incubation, plates were frozen at −20 °C until use. Plates were then thawed for 2 h at room temperature, and 100 µl of each homogenised culture was transferred to a well of a 96-well flat-bottom sterile black plate (Nunc, Inc., Rochester, NY) that contained 100 µl of the SYBR Green I lysis buffer (2xSYBR Green, 20 mM Tris base pH 7.5, 5 mM EDTA, 0.008% w/v saponin, 0.08% w/v Triton X-100). […] Plates were incubated for 1 h at room temperature and then read on a fluorescence plate reader (Tecan, Grödig, Austria) using excitation and emission wavelengths of 485 and 535 nm, respectively. IC50 values were calculated by non-linear regression analysis of data from dose-response curves, using TableCurve 2D version 5.0 software (Systat Software, San Jose, CA). IC50 values are reported as means calculated from three independent experiments.

Row | Compound | IC50 [1] | Selectivity index HepG2/Tryp. [2] | IC50 [2] | CC50 at 72 h [3] | IC50 [4] | Selectivity index HepG2/3D7 [4] | CC50 at 72 h ([3]; HepG2 cells, 72 h, read-out: Cytotoxicity to HepG2 cells CC50 values)
1 | C[C@@H]1[C@H](O)[C@@H](C)/C=C/C=C/C=C/C=C/C=C/C=C/C=C/[C@H](O[C@@H]2O[C@H](C)[C@@H](O)[C@H](N)[C@@H]2O)C[C@@H]2O[C@](O)(C[C@@H](O)C[C@@H](O)[C@H](O)CC[C@@H](O)C[C@@H](O)CC(=O)O[C@H]1C)C[C@H](O)[C@H]2C(=O)O [Amphotericin B, reference compound] | 100 ± 40 nM | – | – | – | – | – | –
2 | CN(C)CCCCNCc1ccc(-c2cc(-c3ccc(CNCCCCN(C)C)cc3)c3ccccc3n2)cc1 [Compound 1a, 2,4-Bis{4-[(4-dimethylaminobutyl)aminomethyl]phenyl}quinoline] | ≥ 10000 nM | 7.03 | 840 ± 33 nM | 5910 ± 1500 nM | 4080 ± 488 nM | 1.45 | –
3 | CN1CCN(CCCCNCc2ccc(-c3cc(-c4ccc(CNCCCCN5CCN(C)CC5)cc4)c4ccccc4n3)cc2)CC1 [Compound 1d, 2,4-Bis{4-[(4–(4-methylpiperazin-1-yl)butyl)aminomethyl]phenyl}quinoline] | ≥ 10000 nM | 6.32 | 1220 ± 121 nM | 7710 ± 400 nM | 690 ± 70 nM | 11.17 | –
4 | c1ccc2c(-c3ccc(CNCCN4CCOCC4)cc3)cc(-c3ccc(CNCCN4CCOCC4)cc3)nc2c1 [Compound 1h, 2,4-Bis{4-[(2-morpholinoethyl)aminomethyl]phenyl}quinoline] | ≥ 10000 nM | 2.83 | 1590 ± 71 nM | 4500 ± 400 nM | 1340 ± 173 nM | 3.36 | –
5 | CN(C)CCCNCc1cccc(-c2cc(-c3cccc(CNCCCN(C)C)c3)c3ccccc3n2)c1 [Compound 1q, 2,4-Bis{3-[(3-dimethylaminopropyl)aminomethyl]phenyl}quinoline] | ≥ 10000 nM | 5.18 | 1300 ± 101 nM | 6740 ± 700 nM | 1440 ± 128 nM | 4.68 | –
6 | CN1CCN(CCCNCc2cccc(-c3cc(-c4cccc(CNCCCN5CCN(C)CC5)c4)c4ccccc4n3)c2)CC1 [Compound 1r, 2,4-Bis{3-[(3–(4-methylpiperazin-1-yl)propyl)aminomethyl]phenyl}quinoline] | ≥ 10000 nM | 3.65 | 1360 ± 194 nM | 4970 ± 300 nM | 1950 ± 774 nM | 2.55 | –
7 | CN(C)CCCCNCc1ccc(-c2nc(-c3ccc(CNCCCCN(C)C)cc3)c3ccccc3n2)cc1 [Compound 3a, 2,4-Bis{4-[(4-dimethylaminobutyl)aminomethyl]phenyl}quinazoline] | ≥ 10000 nM | 4.70 | 900 ± 54 nM | 4230 ± 400 nM | 2150 ± 106 nM | 1.96 | –
8 | CN(C)CCNCc1ccc(-c2nc(-c3ccc(CNCCN(C)C)cc3)c3ccccc3n2)cc1 [Compound 3c, 2,4-Bis{4-[(2-dimethylaminoethyl)aminomethyl]phenyl}quinazoline] | ≥ 10000 nM | 10.72 | 1480 ± 178 nM | 15900 ± 1700 nM | 1060 ± 103 nM | 14.97 | –
9 | CN1CCN(CCCCNCc2ccc(-c3nc(-c4ccc(CNCCCCN5CCN(C)CC5)cc4)c4ccccc4n3)cc2)CC1 [Compound 3d, 2,4-Bis{4-[(4–(4-methylpiperazin-1-yl)butyl)aminomethyl]phenyl}quinazoline] | ≥ 10000 nM | 15.44 | 1860 ± 135 nM | 28700 ± 1900 nM | 2350 ± 488 nM | 12.22 | –
10 | CN1CCN(CCCNCc2ccc(-c3nc(-c4ccc(CNCCCN5CCN(C)CC5)cc4)c4ccccc4n3)cc2)CC1 [Compound 3e, 2,4-Bis{4-[(3–(4-methylpiperazin-1-yl)propyl)aminomethyl]phenyl}quinazoline] | ≥ 10000 nM | 6.64 | 2390 ± 129 nM | 15900 ± 1700 nM | 1520 ± 172 nM | 10.44 | –
11 | COc1ccc2c(-c3ccc(CNCCCN(C)C)cc3)nc(-c3ccc(CNCCCN(C)C)cc3)nc2c1 [Compound 3n, 7-Methoxy-2,4-bis{4-[(3-dimethylaminopropyl)aminomethyl]phenyl}quinazoline] | ≥ 10000 nM | 2.58 | 1050 ± 58 nM | 2710 ± 300 nM | 2520 ± 237 nM | 1.08 | –
12 | CN(C)CCCNCc1cccc(-c2nc(-c3cccc(CNCCCN(C)C)c3)c3ccccc3n2)c1 [Compound 3s, 2,4-Bis{3-[(3-dimethylaminopropyl)aminomethyl]phenyl}quinazoline] | ≥ 10000 nM | 0.55 | 2070 ± 196 nM | 1140 ± 400 nM | 1130 ± 107 nM | 1.01 | –
13 | COc1cccc2c1C(=O)c1c(O)c3c(c(O)c1C2=O)C[C@@](O)(C(=O)CO)C[C@@H]3O[C@H]1C[C@H](N)[C@H](O)[C@H](C)O1 [Doxorubicin, reference compound] | – | – | – | – | – | – | 60 ± 20 nM
14 | NCCCC(N)(C(=O)O)C(F)F (centres unmarked) [Eflornithine, reference compound] | – | – | 15200 ± 640 nM | – | – | – | –
15 | CSc1ccc(OCc2ncc([N+](=O)[O-])n2C)cc1 [Fexinidazole, reference compound] | – | – | 590 ± 39 nM | – | – | – | –
16 | Cc1ccc(C(=O)Nc2ccc(S(=O)(=O)O)c3cc(S(=O)(=O)O)cc(S(=O)(=O)O)c23)cc1NC(=O)c1cccc(NC(=O)Nc2cccc(C(=O)Nc3cc(C(=O)Nc4ccc(S(=O)(=O)O)c5cc(S(=O)(=O)O)cc(S(=O)(=O)O)c45)ccc3C)c2)c1 [Suramine, reference compound] | – | – | 30 ± 3 nM | – | – | – | –
